Results taken from publication PMC5101293, “Acyclic nucleoside phosphonates containing the amide bond” (Monatshefte Fur Chemie, 2016).

system: murine leukemia L1210; assay: Cytostatic activity assay, L1210; assay type: cell-based; details: Mus musculus; L1210 cells, 48 h; read-out: IC50 (50% cytostatic inhibitory concentration, cell proliferation)
Procedure: (§1) The 50% cytostatic inhibitory concentration (IC50) causing a 50% decrease in cell proliferation was determined against murine leukemia L1210, human lymphocyte CEM, human cervix carcinoma HeLa, and human dermal microvascular endothelial cells (HMEC-1).
(§2) All assays were performed in 96-well microtiter plates. To each well were added (5–7.5) × 10^4 tumor cells and a given amount of the test compound. The cells were allowed to proliferate for 48 h (murine leukemia L1210 cells) or 72 h (human lymphocytic CEM and human cervix carcinoma HeLa cells) at 37 °C in a humidified CO2-controlled atmosphere. At the end of the incubation period, the cells were counted in a Coulter counter. The IC50 (50% inhibitory concentration) was defined as the concentration of the compound that inhibited cell proliferation by 50%.

Compound | IC50
CCOP(=O)(COCCNC(=O)Cn1cc(F)c(=O)[nH]c1=O)OCC [18d] | 89 ± 16 µM

system: not given; assay: not given; details: not given

Compound | melting point
CCOP(=O)(CCNC(=O)Cn1cnc2c(=O)[nH]c(N)nc21)OCC (hydrate or solvate) | 175 °C (dec.)
CCOP(=O)(CCCNC(=O)Cn1cc(Br)c(=O)[nH]c1=O)OCC | 164 to 166 °C
CCOP(=O)(CCNC(=O)Cn1ccc(=O)[nH]c1=O)OCC | 138 to 140 °C
CCOP(=O)(CNC(=O)Cn1c(=O)[nH]c(=O)c2ccccc21)OCC (hydrate or solvate) | 203 to 205 °C
CCOP(=O)(COCCNC(=O)Cn1cc(F)c(=O)[nH]c1=O)OCC [18d] | 69 to 70 °C
CCOP(=O)(CCNC(=O)Cn1cc(F)c(=O)[nH]c1=O)OCC | 185 to 186 °C
CCOP(=O)(CCNC(=O)Cn1cnc2c(Cl)nc(N)nc21)OCC | 158 to 160 °C
CCOP(=O)(CNC(=O)Cn1cc(Br)c(=O)[nH]c1=O)OCC | 211 to 213 °C
CCOP(=O)(CCCNC(=O)Cn1c(=O)[nH]c(=O)c2ccccc21)OCC | 168 to 169 °C
CCOP(=O)(CCCNC(=O)Cn1cnc2c(Cl)nc(N)nc21)OCC | 180 to 181 °C
CCOP(=O)(CCNC(=O)Cn1cc(Br)c(=O)[nH]c1=O)OCC | 211 to 213 °C
CCOP(=O)(CCNC(=O)Cn1c(=O)[nH]c(=O)c2ccccc21)OCC | 180 to 182 °C
CCOP(=O)(CNC(=O)Cn1cc(C)c(=O)[nH]c1=O)OCC | 211.5 to 212.5 °C
CCOP(=O)(CNC(=O)Cn1ccc(NC(=O)OCc2ccccc2)nc1=O)OCC (hydrate or solvate) | 180 to 182 °C
CCOP(=O)(CNC(=O)Cn1cc(F)c(=O)[nH]c1=O)OCC (hydrate or solvate) | 205 to 208 °C
CCOP(=O)(CCNC(=O)Cn1ccc(NC(=O)OCc2ccccc2)nc1=O)OCC | 127 to 128 °C
CCOP(=O)(CCCNC(=O)Cn1cnc2c(=O)[nH]c(N)nc21)OCC (hydrate or solvate) | 155 °C (dec.)
CCOP(=O)(CCCNC(=O)Cn1cc(C)c(=O)[nH]c1=O)OCC (hydrate or solvate) | 183 to 184 °C
CCOP(=O)(CNC(=O)Cn1cnc2c(=O)[nH]c(N)nc21)OCC (hydrate or solvate) | 165 °C (dec.)
CCOP(=O)(CNC(=O)Cn1cnc2c(N(C(=O)OC(C)(C)C)C(=O)OC(C)(C)C)ncnc21)OCC | 128 to 130 °C
CCOP(=O)(CCNC(=O)Cn1cc(C)c(=O)[nH]c1=O)OCC | 196 to 197 °C
CCOP(=O)(CCCNC(=O)Cn1ccc(NC(=O)OCc2ccccc2)nc1=O)OCC | 150 to 151 °C
CCOP(=O)(CCCNC(=O)Cn1cc(F)c(=O)[nH]c1=O)OCC (hydrate or solvate) | 143 to 144 °C
CCOP(=O)(CNC(=O)Cn1ccc(=O)[nH]c1=O)OCC | 215 to 217 °C
CCOP(=O)(CNC(=O)Cn1cnc2c(Cl)nc(N)nc21)OCC (hydrate or solvate) | 130 to 132 °C
CCOP(=O)(CCCNC(=O)Cn1ccc(=O)[nH]c1=O)OCC (hydrate or solvate) | 120 to 122 °C

system: human cervix carcinoma HeLa; assay: Cytostatic activity assay, HeLa; assay type: cell-based; details: HeLa cells, 72 h, read-out: IC50 (50% cytostatic inhibitory concentration, cell proliferation)
Procedure: as §1, §2

Compound | IC50
CCOP(=O)(COCCNC(=O)Cn1cc(F)c(=O)[nH]c1=O)OCC [18d] | 194 ± 19 µM

system: L1210 cells; assay: not given; design: method as in doi:10.1135/cccc19822806; details: cited from earlier work

Compound | concentration at which found active in vitro against L1210 cells
O=C(Cn1cc(F)c(=O)[nH]c1=O)NC(CO)(CO)CO [18e] | 15 µM
